In the oligonucleotide strings, read from the 5' end, every base follows the letter of its sugar. An asterisk marks phosphorothioate; unmarked linkages are phosphodiester. Other units and linkages are bracketed, terminal groups are in braces. A string of capitals states the bases alone. d = 2'-deoxy (DNA); r = 2'-OH (RNA)
What follows are substances tested on PCSK9 mRNA (assay: PCSK9 siRNA screening in HepG2 cells (lipofectamine 2000 transfection, PCSK9 mRNA by Quantigene, normalized to GAP-DH)). Conditions: not given.
Assay type: cell-based, human
Procedure: HuH-7 cells were obtained from JCRB Cell Bank (Japanese Collection of Research Bioresources) (Shinjuku, Japan, cat. No.: JCRB0403) Cells were cultured in Dulbecco's MEM (Biochrom AG, Berlin, Germany, cat. No. F0435) supplemented to contain 10% fetal calf serum (FCS) (Biochrom AG, Berlin, Germany, cat. No. S0115), Penicillin 100 U/ml, Streptomycin 100 μg/ml (Biochrom AG, Berlin, Germany, cat. No. A2213) and 2 mM L-Glutamin (Biochrom AG, Berlin, Germany, cat. No K0282) at 37° C. in an atmosphere with 5% CO2 in a humidified incubator (Heraeus HERAcell, Kendro Laboratory Products, Langenselbold, Germany) HepG2 and HeLa cells were obtained from American Type Culture Collection (Rockville, Md., cat. No. HB-8065) and cultured in MEM (Gibco Invitrogen, Karlsruhe, Germany, cat. No. 21090-022) supplemented to contain 10% fetal calf serum (FCS) (Biochrom AG, Berlin, Germany, cat. No. S0115), Penicillin 100 U/ml, Streptomycin 100 μg/ml (Biochrom AG, Berlin, Germany, cat. No. A2213), 1× Non Essential Amino Acids (Biochrom AG, Berlin, Germany, cat. No. K-0293), and 1 mM Sodium Pyruvate (Biochrom AG, Berlin, Germany, cat. No. L-0473) at 37° C. in an atmosphere with 5% CO2 in a humidified incubator (Heraeus HERAcell, Kendro Laboratory Products, Langenselbold, Germany).
For transfection with siRNA, HuH7, HepG2, or HeLa cells were seeded at a density of 2.0×10^4 cells/well in 96-well plates and transfected directly. Transfection of siRNA (30 nM for single dose screen) was carried out with lipofectamine 2000 (Invitrogen GmbH, Karlsruhe, Germany, cat. No. 11668-019) as described by the manufacturer.
24 hours after transfection HuH7 and HepG2 cells were lysed and PCSK9 mRNA levels were quantified with the Quantigene Explore Kit (Genosprectra, Dumbarton Circle Fremont, USA, cat. No. QG-000-02) according to the protocol. PCSK9 mRNA levels were normalized to GAP-DH mRNA. For each siRNA eight individual datapoints were collected. siRNA duplexes unrelated to PCSK9 gene were used as control. The activity of a given PCSK9 specific siRNA duplex was expressed as percent PCSK9 mRNA concentration in treated cells relative to PCSK9 mRNA concentration in cells treated with the control siRNA duplex.
Tables 1b and 2b (and FIG. 6A) summarize the results and provide examples of in vitro screens in different cell lines at different doses. Silencing of PCSK9 transcript was expressed as percentage of remaining transcript at a given dose.
Very active sequences are those that have less than 60% of transcript remaining after treatment with a dose less than or equal to 100 nM. Active sequences are those that have less than 90% transcript remaining after treatment with a high dose (100 nM).

| Substance | IC50 [nM] |
| --- | --- |
| AD-9547: PCSK9 siRNA (sense rCrUrCrGrCrArGrUrCrArGrArGrCrGrCrArCrUdT*dT; antisense rArGrUrGrCrGrCrUrCrUrGrArCrUrGrCrGrArGdT*dT) | 0.2 |
| AD-9553: PCSK9 siRNA (sense rUrCrUrArGrArCrCrUrGrUrUrUrUrGrCrUrUrUdT*dT; antisense rArArArGrCrArArArArCrArGrGrUrCrUrArGrAdT*dT) | 0.02 |

Same assay, conditions: 3 nM siRNA

| Substance | Mean percent remaining mRNA transcript at siRNA concentration/in cell type 3 nM/HepG2 [%] |
| --- | --- |
| AD-9545: PCSK9 siRNA (sense rArGrUrCrArArGrGrArGrCrArUrGrGrArArUrCdT*dT; antisense rGrArUrUrCrCrArUrGrCrUrCrCrUrUrGrArCrUdT*dT) | 43 |
| AD-9547: PCSK9 siRNA (sense rCrUrCrGrCrArGrUrCrArGrArGrCrGrCrArCrUdT*dT; antisense rArGrUrGrCrGrCrUrCrUrGrArCrUrGrCrGrArGdT*dT) | 29 |
| AD-9548: PCSK9 siRNA (sense rGrCrArGrUrCrArGrArGrCrGrCrArCrUrGrCrCdT*dT; antisense rGrGrCrArGrUrGrCrGrCrUrCrUrGrArCrUrGrCdT*dT) | 60 |
| AD-9553: PCSK9 siRNA (sense rUrCrUrArGrArCrCrUrGrUrUrUrUrGrCrUrUrUdT*dT; antisense rArArArGrCrArArArArCrArGrGrUrCrUrArGrAdT*dT) | 22 |
| AD-9554: PCSK9 siRNA (sense rUrUrCrUrArGrArCrCrUrGrUrUrUrUrGrCrUrUdT*dT; antisense rArArGrCrArArArArCrArGrGrUrCrUrArGrArAdT*dT) | 24 |
| AD-9562: PCSK9 siRNA (sense rUrCrUrCrCrUrArGrArCrArCrCrArGrCrArUrAdT*dT; antisense rUrArUrGrCrUrGrGrUrGrUrCrUrArGrGrArGrAdT*dT) | 51 |

Same assay, conditions: 30 nM siRNA

| Substance | Mean percent remaining mRNA transcript at siRNA concentration/in cell type 30 nM/HepG2 [%] |
| --- | --- |
| AD-9539: PCSK9 siRNA (sense rGrGrUrGrGrArGrGrUrGrUrArUrCrUrCrCrUrAdT*dT; antisense rUrArGrGrArGrArUrArCrArCrCrUrCrCrArCrCdT*dT) | 63 |
| AD-9540: PCSK9 siRNA (sense rArGrArGrUrGrArCrCrArCrCrGrGrGrArArArUdT*dT; antisense rArUrUrUrCrCrCrGrGrUrGrGrUrCrArCrUrCrUdT*dT) | 45 |
| AD-9541: PCSK9 siRNA (sense rGrGrUrGrArGrGrGrUrGrUrCrUrArCrGrCrCrAdT*dT; antisense rUrGrGrCrGrUrArGrArCrArCrCrCrUrCrArCrCdT*dT) | 43 |
| AD-9542: PCSK9 siRNA (sense rArUrCrGrArGrGrGrCrArGrGrGrUrCrArUrGrGdT*dT; antisense rCrCrArUrGrArCrCrCrUrGrCrCrCrUrCrGrArUdT*dT) | 160 |
| AD-9543: PCSK9 siRNA (sense rCrGrCrGrUrGrCrUrCrArArCrUrGrCrCrArArGdT*dT; antisense rCrUrUrGrGrCrArGrUrUrGrArGrCrArCrGrCrGdT*dT) | 51 |
| AD-9544: PCSK9 siRNA (sense rUrGrArGrGrArCrCrArGrCrGrGrGrUrArCrUrGdT*dT; antisense rCrArGrUrArCrCrCrGrCrUrGrGrUrCrCrUrCrAdT*dT) | 68 |
| AD-9545: PCSK9 siRNA (sense rArGrUrCrArArGrGrArGrCrArUrGrGrArArUrCdT*dT; antisense rGrArUrUrCrCrArUrGrCrUrCrCrUrUrGrArCrUdT*dT) | 31 |
| AD-9546: PCSK9 siRNA (sense rUrArGrCrCrUrUrGrCrGrUrUrCrCrGrArGrGrAdT*dT; antisense rUrCrCrUrCrGrGrArArCrGrCrArArGrGrCrUrAdT*dT) | 32 |
| AD-9547: PCSK9 siRNA (sense rCrUrCrGrCrArGrUrCrArGrArGrCrGrCrArCrUdT*dT; antisense rArGrUrGrCrGrCrUrCrUrGrArCrUrGrCrGrArGdT*dT) | 31 |
| AD-9548: PCSK9 siRNA (sense rGrCrArGrUrCrArGrArGrCrGrCrArCrUrGrCrCdT*dT; antisense rGrGrCrArGrUrGrCrGrCrUrCrUrGrArCrUrGrCdT*dT) | 54 |
| AD-9549: PCSK9 siRNA (sense rGrGrGrCrCrCrArCrArArCrGrCrUrUrUrUrGrGdT*dT; antisense rCrCrArArArArGrCrGrUrUrGrUrGrGrGrCrCrCdT*dT) | 50 |
| AD-9550: PCSK9 siRNA (sense rGrArGrGrGrUrGrUrCrUrArCrGrCrCrArUrUrGdT*dT; antisense rCrArArUrGrGrCrGrUrArGrArCrArCrCrCrUrCdT*dT) | 36 |
| AD-9551: PCSK9 siRNA (sense UGGCGGGUGGGUACAGCCGTsT; antisense CGGCUGUACCCACCCGCCATsT; as printed in the source, key not given here) | 91 |
| AD-9552: PCSK9 siRNA (sense rArGrGrArGrCrArUrGrGrArArUrCrCrCrGrGrCdT*dT; antisense rGrCrCrGrGrGrArUrUrCrCrArUrGrCrUrCrCrUdT*dT) | 80 |
| AD-9553: PCSK9 siRNA (sense rUrCrUrArGrArCrCrUrGrUrUrUrUrGrCrUrUrUdT*dT; antisense rArArArGrCrArArArArCrArGrGrUrCrUrArGrAdT*dT) | 27 |
| AD-9554: PCSK9 siRNA (sense rUrUrCrUrArGrArCrCrUrGrUrUrUrUrGrCrUrUdT*dT; antisense rArArGrCrArArArArCrArGrGrUrCrUrArGrArAdT*dT) | 23 |
| AD-9555: PCSK9 siRNA (sense rGrUrCrArGrGrArGrCrCrGrGrGrArCrGrUrCrAdT*dT; antisense rUrGrArCrGrUrCrCrCrGrGrCrUrCrCrUrGrArCdT*dT) | 34 |
| AD-9556: PCSK9 siRNA (sense rUrGrGrUrGrGrArGrGrUrGrUrArUrCrUrCrCrUdT*dT; antisense rArGrGrArGrArUrArCrArCrCrUrCrCrArCrCrAdT*dT) | 46 |
| AD-9557: PCSK9 siRNA (sense rCrCrArCrCrGrGrGrArArArUrCrGrArGrGrGrCdT*dT; antisense rGrCrCrCrUrCrGrArUrUrUrCrCrCrGrGrUrGrGdT*dT) | 96 |
| AD-9558: PCSK9 siRNA (sense rUrArUrCrUrUrUrUrGrGrGrUrCrUrGrUrCrCrUdT*dT; antisense rArGrGrArCrArGrArCrCrCrArArArArGrArUrAdT*dT) | 66 |
| AD-9559: PCSK9 siRNA (sense rGrUrGrArCrCrArCrCrGrGrGrArArArUrCrGrAdT*dT; antisense rUrCrGrArUrUrUrCrCrCrGrGrUrGrGrUrCrArCdT*dT) | 35 |
| AD-9560: PCSK9 siRNA (sense rGrArGrUrUrUrArUrUrCrGrGrArArArArGrCrCdT*dT; antisense rGrGrCrUrUrUrUrCrCrGrArArUrArArArCrUrCdT*dT) | 97 |
| AD-9561: PCSK9 siRNA (sense rGrArCrArCrCrArGrCrArUrArCrArGrArGrUrGdT*dT; antisense rCrArCrUrCrUrGrUrArUrGrCrUrGrGrUrGrUrCdT*dT) | 64 |
| AD-9562: PCSK9 siRNA (sense rUrCrUrCrCrUrArGrArCrArCrCrArGrCrArUrAdT*dT; antisense rUrArUrGrCrUrGrGrUrGrUrCrUrArGrGrArGrAdT*dT) | 46 |
| AD-9563: PCSK9 siRNA (sense rCrGrCrUrGrCrCrGrGrCrArArCrUrUrCrCrGrGdT*dT; antisense rCrCrGrGrArArGrUrUrGrCrCrGrGrCrArGrCrGdT*dT) | 103 |
| AD-9564: PCSK9 siRNA (sense rUrCrArUrUrGrGrUrGrCrCrUrCrCrArGrCrGrAdT*dT; antisense rUrCrGrCrUrGrGrArGrGrCrArCrCrArArUrGrAdT*dT) | 120 |
| AD-9565: PCSK9 siRNA (sense rUrArCrUrCrUrGrCrUrCrUrArUrGrCrCrArGrGdT*dT; antisense rCrCrUrGrGrCrArUrArGrArGrCrArGrArGrUrAdT*dT) | 74 |
| AD-9566: PCSK9 siRNA (sense rUrGrCrCrGrGrGrCrCrCrArCrArArCrGrCrUrUdT*dT; antisense rArArGrCrGrUrUrGrUrGrGrGrCrCrCrGrGrCrAdT*dT) | 38 |
| AD-9567: PCSK9 siRNA (sense rCrGrCrUrGrUrGrUrGrGrArCrCrUrCrUrUrUrGdT*dT; antisense rCrArArArGrArGrGrUrCrCrArCrArCrArGrCrGdT*dT) | 41 |
| AD-9569: PCSK9 siRNA (sense rArGrCrUrCrCrUrGrCrArCrArGrUrCrCrUrCrCdT*dT; antisense rGrGrArGrGrArCrUrGrUrGrCrArGrGrArGrCrUdT*dT) | 112 |

Same assay, conditions: 100 nM siRNA

| Substance | Mean percent remaining mRNA transcript at siRNA concentration/in cell type 100 nM/HepG2 [%] |
| --- | --- |
| AD-9539: PCSK9 siRNA (sense rGrGrUrGrGrArGrGrUrGrUrArUrCrUrCrCrUrAdT*dT; antisense rUrArGrGrArGrArUrArCrArCrCrUrCrCrArCrCdT*dT) | 56 |
| AD-9557: PCSK9 siRNA (sense rCrCrArCrCrGrGrGrArArArUrCrGrArGrGrGrCdT*dT; antisense rGrCrCrCrUrCrGrArUrUrUrCrCrCrGrGrUrGrGdT*dT) | 75 |

— US20120016009A1, “Optimized Methods For Delivery Of DSRNA Targeting The PCSK9 Gene” (priority 2008, published 2012)
